Measurements: publication PMC9820430, “New Affordable Methods for Large-Scale Isolation of Major Olive Secoiridoids and Systematic Comparative Study of Their Antiproliferative/Cytotoxic Effect on Multiple Cancer Cell Lines of Different Cancer Origins” (International Journal of Molecular Sciences, 2022)
Read-outs that look alike come from different tables or passages of the source. Marks after values point to notes of the source that are not given here.

Key:
A375 cells = tested on: A375 cells; set-up: method as in PMID 35630786; conditions: 72 h treatment; cited from earlier work
MCF-7 [1] = conditions: cited from earlier work
MCF-7 [2] = assay: Annexin V-FITC/PI staining, flow cytometry; type: cell-based, human; conditions: 48 h at EC50
From the text: (§1) To discern whether cell death triggered by OOPs treatment occurred via apoptosis or necrosis under the experimental conditions applied in this study, live cells treated with OOPs were stained simultaneously with FITC-conjugated annexin V and propidium iodide (PI). Annexin V binds to phosphatidylserine (PS) translocating from the inner to the outer leaflet of the plasma membrane in apoptotic cells. Therefore, annexin V-FITC binding to PS labels live apoptotic cells with green FL. […] PS exposure to the extracellular space and cell membrane permeability were analyzed by flow cytometry as described in detail in the Experimental Section. […] OOP concentrations used were equal to the EC50 values for each cell line (Table 1). annexin V and PI staining discriminated between early- (i.e., annexin V +ve and PI −ve) and late-apoptotic cells (i.e., annexin V +ve and PI +ve), as well as between necrotic (i.e., annexin V −ve and PI +ve) and live (i.e., annexin V −ve and PI −ve) cells (Table 4).
(§2) Apoptosis and necrosis were assessed by double staining with annexin V-FITC and propidium iodide (PI) and were analyzed using flow cytometry (FACS). Human cancer cells were plated in 96-well culture plates in 100 μL of complete medium and were allowed to adhere overnight (~16 h). […] In detail, 0.5 μL of a 500× stock of each tested compound in DMSO was added directly into each well in a final volume of 250 μL culture medium and was gently mixed by pipetting. Control wells were prepared under the same experimental conditions by adding only DMSO at a final concentration of 0.2% (v/v). At the end of the treatment, the cells were detached by trypsinization, media with serum was added to deactivate trypsin, and the cells from three wells were pooled together by centrifugation (1000 rpm, 5 min, 24 °C), washed with cold PBS, centrifuged (1000 rpm, 5 min, 24 °C) and finally resuspended in cold 1× annexin V binding buffer (10 mM HEPES pH = 7.4, 150 mM NaCl, 2.5 mM CaCl2) at a density of 10^4 cells/mL. Staining was performed by incubating with annexin V- FITC and propidium iodide (PI; BioLegend) for 15 min at room temperature in the dark, according to the manufacturer’s instructions. Negative control samples consisted of cells treated only with 0.2% (v/v) DMSO for the same incubation time length (i.e., 48 h). Cells treated with Triton X-100 (0.25% (v/v)) for 5 min at 4 °C were used as controls for 100% permeabilization of the plasma membrane and maximum fluorescence staining with PI (positive control for cells in necrosis). The presence of live, apoptotic or necrotic cells was assessed with the FACS Calibur (Becton–Dickinson, San Jose, CA, USA). In total, 10,000 cells were analyzed per measurement and the acquired data were analyzed using the FlowJo V.10.0.8 software (Tree Star Inc., Ashland, OR, USA). Each condition was analyzed in duplicate, and the results presented are from 2 or 3 independent experiments.
(§3) Data showing OOPs’ apoptotic/necrotic effect were derived from two or three independent experiments and were presented as the means ± SE of the percentage (%) of both annexin V-positive cells (early apoptotic events) and % of annexin V/PI positive cells (late apoptotic events) over the whole cell population normalized to the corresponding events of the control cells, as determined using the FlowJo software.

HT-29 = assay: Annexin V-FITC/PI staining, flow cytometry; type: cell-based, human; conditions: 48 h at EC50
From the text: as §1, §2, §3

A2058 = assay: Annexin V-FITC/PI staining, flow cytometry; type: cell-based, human; conditions: 48 h at EC50
From the text: as §1, §2, §3

MCF-7 [3] = assay: EdU incorporation cell proliferation assay, 24 h; type: cell-based, human; conditions: for % EdU +ve ± SE (S-phase cells): 24 h treatment at EC50 concentration
Method: For this purpose, ten cancer cell lines (i.e., MDA-MB 231, SK-BR-3, MCF-7, A2058, SK-MEL-28, AGS, HepG-2, PANC-1, H1299 and Hela) originating from breast, melanoma, stomach, hepatic, pancreatic, lung and cervical tumors were analyzed in parallel with control samples (i.e., the same cells treated only with 0.2% (v/v) DMSO). […] Subsequently, the treated cells were allowed to incorporate 5-ethynyl-2′-deoxyuridine (EdU) into replicating DNA according to the protocol described in detail in the Experimental Section. […] In this study, after EdU incorporation, the nuclei of the entire cell population were stained with Hoechst and imaged by confocal microscopy (Experimental Section). EdU-positive nuclei, marked by green FL, as well as the total number of nuclei, marked by blue FL, were enumerated by applying the Icy image analysis algorithm on the digital images acquired by confocal microscopy.
Human cancer cells were plated onto sterile glass coverslips (10-mm diameter, 5161063, ThermoFisher Scientific, Waltham, MA, USA) in 24-well tissue culture plates, at a density 5 times the density of cells seeded in 96-well plate and at a final medium volume of 500 μL. In order to obtain homogeneous plating, 250 μL of the medium was added directly to the wells already containing coverslips. Using a tip perpendicularly, coverslips were pressed in order to ensure their attachment to the bottom of the well. The cells were then seeded by adding 250 μL of single-cell suspension drop by drop following a cross path. Immediately after seeding, the plate was shaken back and forth at least ten times to achieve homogeneous plating. The cells were allowed to adhere overnight (~16 h) at 37 °C and 5% (v/v) CO2. The next day, a volume of 500 μL fresh medium was added to each well and the treatment with OOPs was initiated by adding directly to the wells 2 μL of OOPs from the 500× stock in DMSO and immediately mixed afterward by pipetting. […] Control cells were prepared under the same experimental conditions using DMSO instead of the OOPs’ solutions in DMSO at the same final concentration (0.2% (v/v) DMSO). […]

Row | Structure (SMILES) | EC50 (A375 cells) [µM] | EC50 (MCF-7 [1]; 48 or 72 h, different culture conditions, read-out: EC50) [µM] | % Cell Viability (MCF-7 [2]) [%] | Early Apoptotic (% ± S.D.) (MCF-7 [2]) [%] | Late Apoptotic (% ± S.D.) (MCF-7 [2]) [%] | Total Apoptotic (%) (MCF-7 [2]) | % Cell Viability (HT-29) | Early Apoptotic (% ± S.D.) (HT-29) [%] | Late Apoptotic (% ± S.D.) (HT-29) [%] | % Cell Viability (A2058) [%] | Early Apoptotic (% ± S.D.) (A2058) [%] | Late Apoptotic (% ± S.D.) (A2058) [%] | Total Apoptotic (%) (A2058) | % EdU +ve ± SE (S-phase cells) (MCF-7 [3]) [%] | EC50 (MCF-7 [1]; five days of treatment, ref Menendez et al. (2007) 17, read-out: concentration reducing cell viability by 50%) [µM] | Total Apoptotic (%) (HT-29) | % Inhibition ± SE of cell proliferation (MCF-7 [3]; 24 h at EC50, normalized with the control) [%]
1 | C/C=C(/C=O)[C@@H](CC=O)CC(=O)OCCc1ccc(O)c(O)c1 [compound 2, oleacein] | 113 ± 4.9 |  |  |  |  |  |  |  |  |  |  |  |  |  |  |  | 
2 | C/C=C(/C=O)[C@@H](CC=O)CC(=O)OCCc1ccc(O)cc1 [compound 1, oleocanthal] | 67.5 ± 1.9 | 18 to 40 | 65 | 6.30 ± 2.3 | 3.77 ± 0.8 | 10.07 ± 3.1 | 66% | 5.53 ± 1.1 | 6.10 ± 4.3 | 36 | 5.05 ± 2.7 | 2.35 ± 1.7 | 7.40 ± 4.4 | 21.6 ± 4.0 |  |  | 
3 | COC(=O)C1=COC(C)[C@@H](C=O)[C@@H]1CC(=O)OCCc1ccc(O)c(O)c1 (mixture of isomers) [3a,b, oleuropein aglycone] |  |  | 69 | 7.03 ± 0.3 | 1.29 ± 0.8 | 8.31 ± 1.2 | 41 ^a % | 6.95 ± 1.5 | 1.55 ± 1.5 | 24 | 11.88 ± 2.3 | 7.26 ± 1.6 | 19.14 ± 0.7 | 21.1 ± 2.0 | > 100 | 8.50 ± 1.8 ^a % | 19.3 ± 0.5
